The record followed here is publication PMC10901353, “Identification of a potent and selective LAPTc inhibitor by RapidFire-Mass Spectrometry, with antichagasic activity” (PLOS Neglected Tropical Diseases, 2024).

For series [1], the system named is intracellular T. cruzi amastigotes. The series is described as follows: T. cruzi intracellular assay (high-content imaging, infected Vero cells). In kind it is cell-based, Trypanosoma cruzi. Also on record: Max Effect (T. cruzi): unit not given here. The following applies: for EC50 / Emax: Trypanosoma cruzi, Vero; for Emax: read-out: Max Effect (T. cruzi). The protocol:
T. cruzi parasite, TcI strain Silvio X10/7 subclone A1 [34] was maintained in culture as previously described. Parasites were maintained as amastigotes by passaging on a weekly basis in Vero cells. Culture maintenance infections were carried out at an MOI (multiplicity of infection) of 1.5.
(§1) This assay was performed as described with the only modification that treatment was 96 h instead of 72 h. Briefly, Vero cells were infected overnight with tissue culture derived T. cruzi trypomastigotes in T225 tissue culture flasks (MOI 5). Any remaining free trypomastigotes were washed away with serum free MEM and the infected Vero cells were harvested by trypsinisation. Compounds (250 nL in DMSO) were dispensed using LabCyte ECHO (Beckman Coulter Life Sciences, USA) into each well of Corning black flat bottomed 384-well plates (Corning, USA). […] The infected Vero cells were then plated into the plates containing the compounds, at 4,000 cells per well in MEM media with 1% FCS. After 96 h incubation at 37°C in presence of 5% CO2, the plates were fixed with 4% formaldehyde for 20 min at room temperature and stained with 5 μg/mL Hoechst 33342. The plates were imaged on a Perkin Elmer Operetta high-content imaging system using a 20× objective. Images were analyzed using the Columbus system (Perkin Elmer). The algorithm first identified the Vero nuclei followed by demarcation of the cytoplasm and identification of intracellular amastigotes. This algorithm reported percent infected Vero cell and total number of Vero cells. All potency determinations were carried out in at least three independent replicates and are reported as pEC50 +/- standard deviation. pEC50 = -log(EC50[M]).

In series [2] the target is T1, LAPTc (acidic M17 leucyl-aminopeptidase from T. cruzi) (Trypanosoma cruzi, UniProt V5BWE3). The series is described as follows: High-throughput single point screening for LAPTc inhibitors by RapidFire-MS. The settings on record: primary screen, 30 μM, single replicate; read-out: Percent Inhibition. In kind it is biochemical. The protocol:
(§2) This assay was previously described. The assay was performed in 384-well clear F-bottom polypropylene plates with a final reaction volume of 15 μL. The reaction mixture contained 7.5 μL LAPTc in 50 mM Tris-HCl, pH 7.5, 0.005% NP-40 and 7.5 μL LSTVIVR peptide substrate (Cambridge Research Biochemicals, Billingham, UK) in the same buffer was added to start the reaction. The reaction was performed at room temperature for 40 min and then stopped with 85 μL 1% formic acid containing 0.15 mg/mL STVIVR* internal standard (Cambridge Research Biochemicals, Billingham, UK).
Single point screening of a library of 3329 compounds was performed in 384-well clear plates (Greiner 781101) at room temperature. Test compounds (45 nL in DMSO) were transferred to assay plates by an ECHO 550 acoustic dispenser (Labcyte). LAPTc was tested at 3 nM with 150 μM (approximately the value of the apparent Michaelis-Menten constant -appKM- [16]) LSTVIVR peptide substrate in a 40 min reaction. Before addition of substrate, LAPTc was preincubated with 45 nL compounds or DMSO for 15 min. Compounds, dissolved in DMSO, were tested at 30 μM. Controls without compound (the same volume of DMSO, 0% inhibitory effect) and without enzyme and compound (100% inhibitory effect) were prepared. The experiment was performed without replicates. The remaining experimental conditions were maintained as previously described. Data were processed and analysed through ActivityBase XE (IDBS). The selection criterion for hits in this single point screen was percent inhibition larger than the mean plus three standard deviations. All primary screening data are available in ChEMBL (see Data Availability statement).

The target in series [3] is T1, LAPTc (acidic M17 leucyl-aminopeptidase from T. cruzi). The series is described as follows: Dose-response studies for LAPTc inhibition by RapidFire-MS. In kind it is biochemical. The following applies: for Emax: read-out: Maximum Effect; for Hit Confirmation: whether primary screen hit confirmed in potency experiment. As for the experimental part:
as §2
To generate half-maximum inhibitory concentration (IC50) data for LAPTc, 10-point dose-response curves with 100 μM as highest concentration and 1:2 dilution in DMSO (0.195–100 μM range) were prepared in 384 well plates. All other experimental conditions were as described above. All IC50 curve fitting was performed by four-parameter logistic dose-response curve fit using ActivityBase XE (IDBS). At least three replicates were generated for each hit compound.

The test system of series [4] is HepG2 cells. The series is described as follows: Cytotoxicity assay on human HepG2 cells (resazurin). In kind it is cell-based. The settings on record: individual replicates. A general note: The colour change of resazurin is a common sign of viable cells or microbes.
Experiment in series [5]: as above
The settings on record: human, HepG2 cells, 72 h, two independent experiments; read-out: pCC50 (HepG2) (converted). In kind it is cell-based.

Series [6] can be described thus: Cytotoxicity against infected Vero host cells in T. cruzi intracellular assay. In kind it is cell-based, African green monkey. Also on record: Max Effect (Vero): unit not given here. The following applies: African green monkey, Vero cells infected with T. cruzi; infected Vero host cells, 96 h; read-out: pCC50 (Vero) +/- StDev (converted). As for the experimental part: (§3) Briefly, these cells were maintained at 37°C and 5% CO2 in MEM supplemented with 10% FCS, sub-culturing every 2–3 days at a ratio of 1:5 after 5 min treatment with Trypsin-EDTA (Gibco).
as §1, with “After 96 h incubation at 37°C in presence of 5% CO2, the plates were fixed with 4% formaldehyde for 20 min at room temperature and stained with 5 μg/mL Hoechst 33342.” left out

Series [7] relates to Vero cells. The description is as above. In kind it is cell-based, African green monkey. Also on record: Max Effect (Vero): unit not given here. The following applies: individual replicates. The protocol:
as §3
as §1, with “After 96 h incubation at 37°C in presence of 5% CO2, the plates were fixed with 4% formaldehyde for 20 min at room temperature and stained with 5 μg/mL Hoechst 33342.” left out

[8] abbreviates: 96 h, four independent experiments, read-out: pEC50 (T. cruzi) +/- StDev (converted).
Setting [9] is: individual replicates, read-out: pEC50 (T. cruzi) (converted).
[10] abbreviates: Initial hit confirmation, single replicate.
[11] abbreviates: Initial hit confirmation, single replicate, read-out: pIC50 (converted).
The mark [12] stands for this setting: Replicate data generation, individual replicates.
The mark [13] stands for this setting: Replicate data generation, individual replicates, read-out: pIC50 (converted).
Setting [14] is: average of four independent replicates, read-out: pIC50 +/- StDev (LAPTc) (converted).

Structures are written as SMILES. Values joined by “and” are separate entries in the source; they are usually repeats but may differ in a detail not shown here. Equal values may be shown once. Read-outs that look alike come from different tables or passages of the source. Some results are limits rather than exact numbers.

T1 sequence (V5BWE3 entry or part of it): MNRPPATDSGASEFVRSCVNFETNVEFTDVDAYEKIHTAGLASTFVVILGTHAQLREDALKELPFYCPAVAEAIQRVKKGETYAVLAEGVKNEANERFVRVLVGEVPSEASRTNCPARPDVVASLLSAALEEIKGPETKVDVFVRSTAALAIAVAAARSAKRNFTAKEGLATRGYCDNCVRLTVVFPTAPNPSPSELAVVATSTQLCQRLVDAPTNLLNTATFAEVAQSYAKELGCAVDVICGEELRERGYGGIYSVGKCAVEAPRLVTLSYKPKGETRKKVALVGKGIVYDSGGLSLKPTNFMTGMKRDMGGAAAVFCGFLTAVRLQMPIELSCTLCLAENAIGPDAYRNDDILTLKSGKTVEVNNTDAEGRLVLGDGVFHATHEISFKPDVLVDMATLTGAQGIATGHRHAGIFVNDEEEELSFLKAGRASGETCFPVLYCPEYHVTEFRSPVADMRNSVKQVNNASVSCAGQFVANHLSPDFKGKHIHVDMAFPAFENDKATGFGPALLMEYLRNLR

On to `O=C(NCC(=O)N1CCc2ccccc2C1)C1CCCCC1` [Compound 9], for which the EC50 in series [1] (setting [8]) was more than 50.1 µM. In series [1] (individual replicates), the Emax amounted to 31%; the “Max Effect (T. cruzi)” value was 27 and 21 and 30. For the same compound, in series [1] (setting [9]), the EC50 is more than 50.1 µM. Besides, in series [2], the inhibition at 30 µM is 49%. In series [3] (setting [10]), the “Hill Slope” value stood at 1.7 and the Emax turned out to be 54%. The IC50 in series [3] (setting [11]) was 15.8 µM. In series [3] (setting [12]), the “Hill Slope” value is 0.749 and 0.7 and 0.655; the “Maximum Effect” value was 67% and 63%; the Emax is 64%. In addition, the IC50 in series [3] (setting [13]) was 39.8 µM and 31.6 µM. Moreover, in series [3] (setting [14]), the IC50 was 28.8 µM. Also, the “Hit Confirmation” value in series [3] was “confirmed”. Further, in series [4], the “Max Effect (HepG2)” value is 3.76 and 2.85; the “pEC50 (HepG2)” value was less than 4.0. Also, the CC50 at 72 h in series [5] was more than 100 µM. The CC50 at 96 h in series [6] was more than 50.1 µM. Also, in series [7], the “Max Effect (Vero)” value was 7 and 4 and 15 and 11; the “pEC50 (Vero)” value is recorded as less than 4.3.
`Cc1ccc2nc(-c3ccc(NS(=O)(=O)c4cc(C(=O)O)c(Cl)cc4Cl)cc3)sc2c1` [Compound 5]: the EC50 in series [1] (setting [8]) and in series [1] (setting [9]) was more than 50.1 µM in each case. Also, the values for the Emax in series [1] (individual replicates), in series [3] (setting [10]) and in series [3] (setting [12]) were 44%, 96% and 99%, respectively. Moreover, the “Max Effect (T. cruzi)” value in series [1] (individual replicates) worked out at 45. In addition, in series [2], the inhibition at 30 µM stood at 58%. Moreover, the “Hill Slope” value in series [3] (setting [10]) is 1.2; in series [3] (setting [12]) it was 4.3 and 4.2 and 3.9. In addition, the IC50 is 12.6 µM in series [3] (setting [11]), 7.94 µM in series [3] (setting [13]) and 8.91 µM in series [3] (setting [14]). The “Maximum Effect” value in series [3] (setting [12]) is 98%. The “Hit Confirmation” value in series [3] is “confirmed”. Moreover, the “Max Effect (HepG2)” value in series [4] was 4.7 and 1.78. Also, the “pEC50 (HepG2)” value in series [4] was less than 4.0. Moreover, the CC50 at 72 h in series [5] was more than 100 µM. For the same compound, the CC50 at 96 h in series [6] is 33.1 µM. For the same compound, the “Max Effect (Vero)” value in series [7] was 71 and 82 and 77. For the same compound, the “pEC50 (Vero)” value in series [7] was 4.4 and 4.6 and 4.5.
Regarding `COc1ccc(CC(=O)Nc2nc(-c3ccccn3)cs2)c(OC)c1` [Compound 12], the EC50 in series [1] (setting [8]) was 7.08 µM; in series [1] (setting [9]) it was 7.94 µM. For the same compound, the Emax in series [1] (individual replicates) was determined as 98%; in series [3] (setting [10]) it was 84%; in series [3] (setting [12]) it was 68%. Moreover, in series [1] (individual replicates), the “Max Effect (T. cruzi)” value is 100 and 94. In series [1] (individual replicates), the “pEC50 (T. cruzi)” value came out at 5.2. Besides, the inhibition at 30 µM in series [2] stood at 42%. Besides, the “Hill Slope” value is 2.1 in series [3] (setting [10]); 1.0 and 0.9 and 1.3 in series [3] (setting [12]). Besides, the IC50 in series [3] (setting [11]) is 20 µM; in series [3] (setting [13]), 31.6 µM and 20 µM; in series [3] (setting [14]), 25.1 µM. In series [3] (setting [12]), the “Maximum Effect” value is 67% and 73%. Moreover, in series [3], the “Hit Confirmation” value is “confirmed”. Moreover, in series [4], the “Max Effect (HepG2)” value was 11 and 10. Besides, in series [4], the “pEC50 (HepG2)” value was less than 4.0. Moreover, the CC50 at 72 h in series [5] was more than 100 µM. Moreover, in series [6], the CC50 at 96 h is 1 µM. Also, the “Max Effect (Vero)” value in series [7] was 46 and 49 and 51.
As to `Cn1ccnc1C(NS(=O)(=O)c1ccc(C#N)cc1)c1cccc(F)c1` (centres unmarked) [Compound 8], the EC50 in series [1] (setting [8]) is more than 50.1 µM. In addition, in series [1] (individual replicates), the Emax turned out to be 29%; the “Max Effect (T. cruzi)” value was 31 and 26 and 25. For the same compound, the EC50 in series [1] (setting [9]) was more than 50.1 µM. The inhibition at 30 µM in series [2] worked out at 49%. Besides, in series [3] (setting [10]), the “Hill Slope” value amounted to 1.0 and the Emax is 89%. In series [3] (setting [11]), the IC50 is 12.6 µM. In addition, in series [3] (setting [12]), the “Hill Slope” value was 1.5 and 1.6 and 1.3; the “Maximum Effect” value was 82%; the Emax was 79%. Further, the IC50 in series [3] (setting [13]) is 12.6 µM. Moreover, the “Hit Confirmation” value in series [3] is recorded as “confirmed”. Moreover, in series [4], the “Max Effect (HepG2)” value is 6.44 and 10; the “pEC50 (HepG2)” value was less than 4.0. Besides, the CC50 at 72 h in series [5] was more than 100 µM. For the same compound, the CC50 at 96 h in series [6] is more than 50.1 µM. For the same compound, in series [7], the “Max Effect (Vero)” value is 18 and 29 and 34 and 32; the “pEC50 (Vero)” value is given as less than 4.3.
As to `CC1c2ccsc2CCN1C(=O)c1ccc(-n2cnnn2)cc1` (centres unmarked) [Compound 2], the EC50 in series [1] (setting [8]) is more than 50.1 µM. Further, the EC50 in series [1] (setting [9]) is more than 50.1 µM. Besides, the “Max Effect (T. cruzi)” value in series [1] (individual replicates) was 42 and 15 and 37 and 27. In addition, in series [2], the inhibition at 30 µM was found to be 62%. Besides, in series [3] (setting [10]), the “Hill Slope” value was determined as 1.7 and the Emax turned out to be 77%. For the same compound, in series [3] (setting [11]), the IC50 is 31.6 µM. Further, in series [3] (setting [12]), the “Hill Slope” value is 1.1 and 1.2; the “Maximum Effect” value is recorded as 86%; the Emax is 87%. Moreover, in series [3] (setting [13]), the IC50 is 15.8 µM. Moreover, in series [3] (setting [14]), the IC50 is 19.5 µM. Moreover, the “Hit Confirmation” value in series [3] is reported as “confirmed”. Also, in series [4], the “Max Effect (HepG2)” value is 4 and 3; the “pEC50 (HepG2)” value is less than 4.0. Moreover, the CC50 at 72 h in series [5] is more than 100 µM. The CC50 at 96 h in series [6] was more than 50.1 µM. Also, in series [7], the “Max Effect (Vero)” value is 26 and 27 and 21 and 22; the “pEC50 (Vero)” value is given as less than 4.3.

Usually inhibition stands for the share of the control response that was lost under treatment.
